Measured values reported in ChEMBL document CHEMBL1201862, “PubChem BioAssay data set” (2004).
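A five-concentration, 48-hour dose response in 96-well plates underlies each endpoint, interpolated linearly between surrounding concentrations. Here, GI50 denotes the concentration required for 50% inhibition of growth.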 The source made the active and inactive calls. No stated cut-off is given here; in the data, active = GI50 up to about 1.1 µM and inactive = higher.

Tests used:
Assay in all cases: NCI-60 cell line screen, 48 h
UACC-257 = system: UACC-257
K562 = system: K562
UACC-62 = system: UACC-62
HL-60 = system: HL-60
SN12C = system: SN12C
HCC 2998 = system: HCC 2998
Hs-578T = system: Hs-578T
NCI-H460 = system: NCI-H460
OVCAR-4 = system: OVCAR-4
HCT-116 = system: HCT-116
PC-3 = system: PC-3
SR = system: SR
SF-295 = system: SF-295
786-0 = system: 786-0
SNB-19 = system: SNB-19
OVCAR-5 = system: OVCAR-5
EKVX = system: EKVX
SW-620 = system: SW-620
SK-MEL-5 = system: SK-MEL-5
COLO 205 = system: COLO 205
OVCAR-3 = system: OVCAR-3
SK-OV-3 = system: SK-OV-3
MCF7 = system: MCF7
NCI-H226 = system: NCI-H226
HOP-62 = system: HOP-62
HOP-92 = system: HOP-92
MDA-MB-231 = system: MDA-MB-231
SK-MEL-2 = system: SK-MEL-2
NCI/ADR-RES = system: NCI/ADR-RES
KM12 = system: KM12
RPMI-8226 = system: RPMI-8226
DU-145 = system: DU-145
SF-268 = system: SF-268
SK-MEL-28 = system: SK-MEL-28
SNB-75 = system: SNB-75
NCI-H23 = system: NCI-H23
LOX IMVI = system: LOX IMVI
A498 = system: A498
MOLT-4 = system: MOLT-4
SF-539 = system: SF-539
U-251 = system: U-251
TK-10 = system: TK-10
IGROV-1 = system: IGROV-1
HT-29 = system: HT-29
A549 = system: A549
NCI-H522 = system: NCI-H522
M14 = system: M14
MDA-MB-435 = system: MDA-MB-435
RXF 393 = system: RXF 393
MDA-N = system: MDA-N
OVCAR-8 = system: OVCAR-8
CCRF-CEM = system: CCRF-CEM
HCT-15 = system: HCT-15
UO-31 = system: UO-31
ACHN = system: ACHN
CAKI-1 = system: CAKI-1
Malme-3M = system: Malme-3M
T47D = system: T47D

Measured: GI50

C[C@@H]1OCC(O)C([C@H]2OC(c3ccccc3)=N[C@H]2CO)O1 (stereo not given in full)
> 100 µM: HCT-15
inactive: UACC-257 > 100 µM | K562 > 100 µM | UACC-62 > 100 µM | HL-60 > 100 µM | SN12C > 100 µM | HCC 2998 > 100 µM | Hs-578T > 100 µM | NCI-H460 > 100 µM | OVCAR-4 > 100 µM | HCT-116 > 100 µM | PC-3 > 100 µM | SR > 100 µM | SF-295 > 100 µM | 786-0 > 100 µM | SNB-19 > 100 µM | OVCAR-5 > 100 µM | EKVX > 100 µM | SW-620 > 100 µM | SK-MEL-5 > 100 µM | COLO 205 > 100 µM | OVCAR-3 > 100 µM | SK-OV-3 > 100 µM | MCF7 > 100 µM | NCI-H226 > 100 µM | HOP-62 > 100 µM | HOP-92 > 100 µM | MDA-MB-231 > 100 µM | SK-MEL-2 > 100 µM | NCI/ADR-RES > 100 µM | KM12 > 100 µM | RPMI-8226 > 100 µM | DU-145 > 100 µM | SF-268 > 100 µM | SK-MEL-28 > 100 µM | SNB-75 72.1 µM | NCI-H23 > 100 µM | LOX IMVI > 100 µM | A498 > 100 µM | MOLT-4 > 100 µM | SF-539 > 100 µM | U-251 > 100 µM | TK-10 > 100 µM | IGROV-1 > 100 µM | HT-29 > 100 µM | A549 > 100 µM | NCI-H522 > 100 µM | M14 > 100 µM | MDA-MB-435 > 100 µM | RXF 393 > 100 µM | MDA-N > 100 µM | OVCAR-8 > 100 µM | CCRF-CEM > 100 µM | UO-31 > 100 µM | ACHN > 100 µM | CAKI-1 > 100 µM | Malme-3M > 100 µM | T47D > 100 µM

O=C1O/C(=C\c2ccc(O)c(Br)c2)C(c2ccc(O)cc2)=C1Cl
active: CCRF-CEM 0.849 µM
inactive: UACC-257 42.7 µM | K562 68.4 µM | UACC-62 16.4 µM | HL-60 43.6 µM | HCC 2998 39.1 µM | Hs-578T 37.1 µM | NCI-H460 26.6 µM | OVCAR-4 40 µM | HCT-116 34.1 µM | PC-3 51.1 µM | SR 35.1 µM | SF-295 40.5 µM | 786-0 42 µM | SNB-19 89.3 µM | OVCAR-5 51.3 µM | EKVX 32.6 µM | SW-620 38.2 µM | SK-MEL-5 22.4 µM | COLO 205 47.5 µM | OVCAR-3 27.2 µM | SK-OV-3 > 100 µM | MCF7 19.2 µM | HOP-62 46.7 µM | HOP-92 37.4 µM | SK-MEL-2 40.1 µM | NCI/ADR-RES 29.6 µM | KM12 34.2 µM | RPMI-8226 10.1 µM | DU-145 61.1 µM | SF-268 27.7 µM | SK-MEL-28 > 100 µM | SNB-75 53.3 µM | NCI-H23 22.4 µM | LOX IMVI 42.2 µM | A498 25.3 µM | MOLT-4 65.8 µM | SF-539 40.6 µM | U-251 44.8 µM | TK-10 45.6 µM | IGROV-1 55.6 µM | HT-29 51.9 µM | A549 36.1 µM | NCI-H522 26.5 µM | M14 36.1 µM | MDA-MB-435 33.3 µM | RXF 393 29.9 µM | MDA-N 26.1 µM | OVCAR-8 42.5 µM | UO-31 48.2 µM | ACHN 49.9 µM | CAKI-1 37 µM | Malme-3M 38.5 µM | T47D 58.3 µM
36.6 µM: HCT-15

C/C=C/C=C/c1cc2cc3c(c(O)c2c(=O)[nH]1)C1(CC3)C(=O)c2c(O)c3c(c(O)c2C1=O)C(=O)C(OC)=CC3=O (stereo not given)
active: HL-60 < 0.01 µM | Hs-578T 0.132 µM | PC-3 0.0573 µM | MCF7 0.0681 µM | HOP-92 0.0328 µM | MDA-MB-231 0.203 µM | NCI/ADR-RES 0.283 µM | DU-145 0.378 µM | LOX IMVI 0.0205 µM | MDA-MB-435 0.303 µM | MDA-N 0.267 µM | T47D < 0.01 µM
